This passage reports melting point results from the Bradley open melting point set (2014).

The structures appear in SMILES notation. “And” between values parts separate entries of the source, which are not always exact repeats. Equal values may be shown once. Where a name gives a salt, the structure may show the parent alone.

On to `COC(=O)c1sccc1O` [methyl 3-hydroxythiophene-2-carboxylate], for which the melting point turned out to be 46 °C.
As to `CC(C)=CCC/C(C)=C/CO` [geraniol], the melting point is -15 °C.
The molecule `O=C1C2CC3=C(CC=CC3)CC2C(=O)C2CC3=C(CC=CC3)CC12` (stereo not given) gave a melting point of 227 °C.
For the molecule `NC=O` [formamide], the melting point amounted to 2 °C.
Take `CCCCCCCCCCCCCCCCI` [1-Iodohexadecane]: the melting point turned out to be 22 °C.
As to `NC(=O)C[C@H](N)C(=O)O` [L-Asparagine], the melting point came to 235 °C.
The molecule `c1ccc2c(-c3cccc4ccccc34)cccc2c1` [binaphthyl] returned a melting point of 154 °C.
The same measure for `CC(CC(=O)O)C(=O)O` (stereo not given) [2-Methylsuccinic acid]: 111 °C; for `O=Cc1cc(F)c(F)c(F)c1` [3,4,5-trifluorobenzaldehyde]: 25 °C; for `OCCCl` [2-chloroethanol]: -67 °C.
The molecule `CCCC(=O)Nc1ccc(OCC(O)CNC(C)C)c(C(C)=O)c1` (stereo not given) [acebutolol] had a melting point of 123 °C.
Molecule `Brc1ccc(Br)cc1` [1,4-Dibromobenzene] had a melting point of 88 °C.
The same measure for `O=C(O)[C@H](O)[C@@H](O)C(=O)O` [(2R,3R)-2,3-Dihydroxysuccinic acid]: 171 °C.
Turning to `CCc1ccccc1Br` [1-bromo-2-ethylbenzene], the melting point was -68 °C.
Take `O=[N+]([O-])c1ccccc1CO` [2-nitrobenzyl alcohol]: the melting point was 72 °C.
`CCc1ccccc1B(O)O` [2-ethylbenzeneboronic acid] registered a melting point of 97 °C.
The same measure for `O=C[C@@H](O)[C@H](O)[C@H](O)CO` [D-arabinose]: 156 °C; for `CC(C)C#N` [2-Methylpropanenitrile]: -72 °C.
Regarding `O=C5\C=C4/C(C3CCC2(C(CCC2OC(=O)Cc1ccccc1)C3CC4)C)(C)CC5` (stereo not given) [Testosterone phenylacetate], the melting point came out at 129 °C.
`OC1CC2=C(CC=CC2)CC1O` (stereo not given) [1,2,3,4,5,8-hexahydronaphthalene-2,3-diol] had a melting point of 121 °C.
Consider `Cc1ccc(C(C)C)cc1` [p-cymene], for which the melting point was -68 °C.
With `COC=O` [methyl formate], the melting point is -100 °C.
`CCCCOCCOCCO` [diethylene glycol mono-n-butyl ether]: the melting point was -68 °C.
`Cc1cc(C#N)cc(C#N)c1` [5-methylisophthalonitrile] displayed a melting point of 164 °C.
In turn, `O=C(O)c1cccc(C(=O)c2ccccc2)c1` [3-benzoylbenzoic acid] displayed a melting point of 164 °C.
On to `CCCCC(CC)CO` (stereo not given) [2-Ethylhexan-1-ol], for which the melting point is -76 °C.
`Clc1cc2c(cc1Cl)-c1cc(Cl)c(Cl)cc1-2` [Biphenylene, 2,3,6,7-tetrachloro-] had a melting point of 239 °C.
The molecule `CN(C)c1ccc(/C=C/C=O)cc1` [(2E)-3-[4-(Dimethylamino)phenyl]acrylaldehyde] displayed a melting point of 135 °C.
For `c1ccsc1` [thiophene], the melting point is -38 °C (3×) and -38.2 °C and -38.3 °C (2×).
Take `O=Cc1ccco1` [furfuraldehyde]: the melting point is -36.5 °C.
Regarding `NC(=O)c1cccc(O)c1` [m-hydroxybenzamide], the melting point amounted to 170 °C.
The result for `CO[C@H]1C=CO[C@@]2(C)Oc3c(C)c(O)c4c(O)c(c(/C=N/N5CCN(C)CC5)c(O)c4c3C2=O)NC(=O)C(C)=CC=C[C@H](C)[C@H](O)[C@@H](C)[C@H](O)[C@H](C)[C@H](OC(C)=O)[C@@H]1C` [Rifampin] reads 183 °C; that for `CC(C)CCC[C@@H](C)[C@H]1CC[C@H]2[C@@H]3CC=C4C[C@@H](O)CC[C@]4(C)[C@H]3CC[C@]12C` [(3beta)-Cholest-5-en-3-ol], 149 °C.
On to `Cc1cccc(N)c1C` [2,3-dimethylaniline], for which the melting point is 3 °C.
As to `Nc1ccccc1-c1ccccc1` [2-aminobiphenyl], the melting point was 50 °C.
The result for `COC(=O)c1ccc(O)cc1` [methylparaben] reads 131 °C; that for `O=C1OC(c2ccc(O)cc2)(c2ccc(O)cc2)c2ccccc21` [Phenolphthalein], 262 °C.
Take `COC(=O)c1cccc(Cl)c1` [methyl 3-chlorobenzoate]: the melting point was determined as 21 °C.
Molecule `Cl[C@H]1[C@H](Cl)[C@@H](Cl)[C@@H](Cl)[C@H](Cl)[C@H]1Cl` [g-bhc(lindane)] displayed a melting point of 112 °C.
Consider `O=[N+]([O-])c1cccnc1Cl` [2-chloro-3-nitropyridine], for which the melting point amounted to 101 °C.
The result for `Cc1occc(=O)c1O` [3-hydroxy-2-methyl-4-pyrone] reads 163 °C; that for `COc1ccc(NC(=S)c2cc(C(C)(C)C)c(O)c(C(C)(C)C)c2)cc1`, 129 °C; that for `O=CNC(c1ccccc1)c1ccccc1` [N-(Diphenylmethyl)formamide], 136 °C.
The same measure for `NCC(CC(=O)O)c1ccc(Cl)cc1` (stereo not given) [baclofen]: 208 °C.
Take `O=[N+]([O-])c1ccccc1C=Cc1ccc2ccccc2n1` [2-[2-(2-Nitro-phenyl)-vinyl]-quinoline]: the melting point came out at 102 °C.
The result for `OC1=NC(=Nc2ccccc2)S/C1=C\c1ccccc1` [OSM-S-55] reads 260 °C; that for `C1CCOC1` [tetrahydrofuran], -108 °C.
The molecule `COc1ccc2cc(C(C)CO)ccc2c1` (stereo not given) [naproxol] yielded a melting point of 87 °C.
With `COc1cc(Cc2cnc(N)nc2N)cc(OC)c1OC` [Trimethoprim], the melting point was found to be 201 °C.
The result for `CC=O` [acetaldehyde] reads -125 °C; that for `CCOC(=O)C(C(=O)OCC)c1ccccc1` [diethyl phenylmalonate], 16 °C.
Molecule `O=C(Oc1ccccc1)c1ccccc1` [phenyl benzoate] displayed a melting point of 69 °C.
The result for `Clc1ccc2[nH]ccc2c1` [5-chloroindole] reads 71 °C.
On to `CNc1ccc([N+](=O)[O-])cc1` [N-methyl-4-nitroaniline], for which the melting point is 153 °C.
`O=C(O)CCCCBr` [5-bromovaleric acid] gave a melting point of 40 °C.
The same measure for `O=C(c1ccccc1)c1ccc(Cl)cc1` [4-chlorobenzophenone]: 76 °C; for `N#C/C=C/c1cc(C(F)(F)F)cc(C(F)(F)F)c1` [3,5-bis(trifluoromethyl)cinnamonitrile]: 82 °C; for `CC(C)C1=CC2=CC[C@@H]3[C@](C)(CCC[C@@]3(C)C(=O)O)[C@H]2CC1` [abietic acid]: 161 °C.
As for `CC(CN(C)C)CN1c2ccccc2CCc2ccccc21` (stereo not given) [trimipramine], the melting point came to 45 °C.
As for `CCNc1ccccc1` [n-ethylaniline], the melting point is -63 °C.
Consider `O=[N+]([O-])c1cccc(O)c1` [3-nitrophenol], for which the melting point came to 97 °C.
The molecule `Cc1cn([C@H]2C[C@H](N=[N+]=[N-])[C@@H](CO)O2)c(=O)[nH]c1=O` [Zidovudine] showed a melting point of 109 °C.
In the case of `CC1(O)CCCCC1` [1-methylcyclohexanol], the melting point was determined as 26 °C.
Consider `II` [Iodine], for which the melting point amounted to 114 °C.
On to `NCCNCCNCCN` [N,N'-Bis(2-aminoethyl)ethane-1,2-diamine], for which the melting point is 12 °C.
